From US20050089509A1 (priority 2003, published 2005)
Where “and” joins values, the source holds several entries; their conditions need not be identical. Equal values may be shown once. Read-outs that look alike come from different tables or passages of the source.

Legend:
J774 cells = type: cell-based, murine
F. novicida [1] = type: cell-based, F. tularensis subsp. novicida
F. novicida [2] = test system: F. novicida; parameters: species or system F. tularensis subsp. novicida; details: in vivo
[3] = cited from earlier work
F. novicida [4] = test system: F. novicida; parameters: species or system F. tularensis subsp. novicida; details: in vivo; remark: listed apart in the source
[5] = mouse, in vivo
F. novicida [6] = test system: F. novicida; parameters: species or system F. tularensis subsp. novicida; details: in vivo; remark: listed apart in the source

| Substance | TNF-α increase (J774 cells) | intracellular bacterial replication in macrophages (F. novicida [1]) | time to death (F. novicida [2]) | half-life in vivo [3] | toxicity ([3]; in vivo) | bacteria in the liver and spleen (F. novicida [4]) | bacteria recovered from the spleens (F. novicida [4]) | toxicity [5] | efficacy of route of delivery ([5]; ip) | animals succumbed to the infection by day (F. novicida [6]) [days] | TNF-α detected (in words) (J774 cells) | survival (F. novicida [6]) [%] | survival / control of the disease (in words) (F. novicida [6]) |
| --- | --- | --- | --- | --- | --- | --- | --- | --- | --- | --- | --- | --- | --- |
| IFN-γ | 9 fold and 18 fold | markedly inhibited replication of bacteria | – | – | – | – | – | – | – | – | – | – | – |
| IL-12 | – | did not inhibit bacterial replication | significantly increased the time to death | longer sustainable half-life than IFN-γ | very little toxicity | marked reduction of bacteria | no bacteria recovered | no toxicity observed | most efficacious | ≤ 6 | very little TNF-α | – | – |
| gentamicin | – | – | – | – | – | – | – | – | – | – | – | 17 | ineffective in controlling the disease |
